The subject of data set [1] is phenol red in the blood. Briefly: Uricosuric activity: retention of phenol red in the blood of rats. The following applies: Rattus norvegicus, read-out: Maximum Ratio measured (phenol red in blood, treated to non-treated). The class given is in vivo. How it is done: The uricosuric activity of the compounds has been shown by the method described by H. C. SCARBOROUGH and G. R. McKINNEY (J. Med. Pharm. Chem. (1962) 5 175) as well as by E. KREPPEL (Med. Exptl. (1959) 1 285); phenol red is administered intravenously to rats and the development of the concentration of this colourant in their blood is studied as a function of time. It is known that rats, which one hour before the beginning of the experiment have received an uricosuric agent, show, in comparison with non-treated animals, retention of phenol red in the blood.
The ratio is that of the concentrations of phenol red found in the blood of animals which have received the test compounds at the dose indicated at the specified time to the concentrations for non-treated animals.

Data set [2] can be described thus: Acute toxicity orally in mice (method of BLISS). The following applies: mouse, in vivo. How it is done: The acute toxicity of the new compounds has been studied in mice orally, according to the method of BLISS (Quart. J. Pharm. Pharmacol. (1938) 2 192-216); with the exception of the compounds in Examples 3 and 13, which have an LD50 in the region of 700 mg/kg, all the other compounds have an LD50 above 1000 mg/kg.

Data set [3] in a line: Diuretic ability in mice (urine volume ratio treated/control). The data set is classed as in vivo. How it is done: The diuretic ability of the novel compounds according to the invention has been studied in mice. It is expressed in Table III in the form of a ratio of the volume of urine for the treated animals received during 2 and 4 hours after administration (at the indicated dose) of the test compound to the volume measured under the same conditions for the control animals.

Data set [4] is described as follows: Solubility in aqueous medium (statement). The data set is classed as physicochemical.
[5] abbreviates: 0.75 h, 45 minutes after injection of the colourant.
Where [6] appears, read: 1 h, 60 minutes after injection of the colourant.
Setting [7] is: 0.25 h, 15 minutes after injection of the colourant.

11 molecules from patent US4195093A, “Furoyl- and thenoyl-aryloxyalkyl carboxylic acid derivatives, their preparation and their use in therapy” (Albert Rolland S.A., priority 1977, dated 1980) can be followed below.

Counter-ions that a name gives are not always drawn. Like-named read-outs stand apart in the source and are kept apart here.

For `O=C(O)COc1ccc(C(=O)c2cccs2)c2ccccc12` [Example 1, [4-(2-Thenoyl)-1-naphthyloxy]-acetic acid], the response vs control in vivo at 50 mg/kg in data set [1] (setting [5]) is 100%. Besides, in data set [1] (setting [6]), the response vs control in vivo at 100 mg/kg was 121%.
On to `O=C(O)COc1ccc(C(=NO)c2cccs2)c2ccccc12` [Example 2, [4-(2-Thienyl-hydroxyiminomethyl)-1-naphthyloxy]-acetic acid], for which, in data set [1] (setting [5]), the response vs control in vivo at 100 mg/kg amounted to 77%.
`O=C(O)COc1ccc(C(=O)c2ccoc2)c2ccccc12` [Example 3, [4-(3-Furoyl)-1-naphthlyloxy]-acetic acid]: the LD50 in data set [2] (mice, oral, method of BLISS) was about 700 mg/kg. Further, the entries for the “Diuretic Ability, 0 to 2 hours (ratio of urine volume treated/control)” value in data set [3] (20 mg/kg p.o.) and in data set [3] (50 mg/kg p.o.) were 1.53 and 1.48, respectively. In addition, the “Diuretic Ability, 0 to 4 hours (ratio of urine volume treated/control)” value worked out at 1.31 in data set [3] (20 mg/kg p.o.) and 1.44 in data set [3] (50 mg/kg p.o.).
With `O=C(O)COc1c(Br)cc(C(=O)c2cccs2)c2ccccc12` [Example 6], in data set [1] (setting [6]), the response vs control in vivo at 50 mg/kg turned out to be 116%.
Take `Cc1ccc(C(=O)c2ccc(OCC(=O)O)c3ccccc23)s1` [Example 7]: in data set [1] (setting [7]), the response vs control in vivo at 100 mg/kg worked out at 44%. Further, in data set [3] (50 mg/kg p.o.), the “Diuretic Ability, 0 to 2 hours (ratio of urine volume treated/control)” value was found to be 2.01 and the “Diuretic Ability, 0 to 4 hours (ratio of urine volume treated/control)” value worked out at 1.70.
As for `O=C(O)COc1ccc(C(=O)c2ccsc2)c2ccccc12` [Example 10], the response vs control in vivo at 100 mg/kg in data set [1] (0.5 h, 30 minutes after injection of the colourant) was 53%. Also, in data set [3] (200 mg/kg p.o.), the “Diuretic Ability, 0 to 2 hours (ratio of urine volume treated/control)” value came out at 1.38 and the “Diuretic Ability, 0 to 4 hours (ratio of urine volume treated/control)” value is given as 1.77.
Consider `O=C(O)COc1ccc(C(=O)c2cc3ccccc3o2)c2ccccc12` [Example 12], for which, in data set [1] (setting [7]), the response vs control in vivo at 50 mg/kg is 51%.
The molecule `O=C(O)CCOc1ccc(C(=O)c2cccs2)c2ccccc12` [Example 13] returned an LD50 in data set [2] (mice, oral, method of BLISS) of about 700 mg/kg.
With `O=C(O)CCOc1ccc(C(=O)c2ccco2)c2ccccc12` [Example 14], the response vs control in vivo at 75 mg/kg in data set [1] (1 h, dose 75 mg/kg, 60 minutes after injection of the colourant) was 80%.
Molecule `CCc1oc2ccccc2c1C(=O)c1cc(I)c(O)c(I)c1` [benziodarone, 2-ethyl-3-(4-hydroxy-3,5-diiodobenzoyl)-benzo[b]furane, reference compound] came in with an LD50 in data set [2] (po) of 1400 mg/kg. For the same molecule, in data set [1] (setting [5]), the response vs control in vivo at 100 mg/kg worked out at 53%.
`O=C(O)COc1ccc(C(=O)c2cccs2)c2ccccc12` [tri(hydroxymethyl)methylamine salt]: in data set [4], the “solubility in aqueous medium” value was “particularly useful because of its solubility in aqueous medium”.

The LD50 is the dose at which mortality reaches 50%.
